Read-outs that look alike come from different tables or passages of the source.
Assays:
[1] = system: ELuc (luciferase derived from known click beetles); assay: Km of ELuc luciferase (luminescence kinetic analysis); type: biochemical, click beetle; conditions: 0.1 M Tris-HCl (pH 8.0), MgSO4, measured in a similar manner
Procedure: (§1) A solution of 0.1 M Tris-HCl (pH 8.0) containing each of the purified luciferase, 4 mM of ATP, and 8 mM of MgSO4 was connected to the standard pump of the luminometer, and the measurements was carried out at the same time as addition of 50 μl of the solution to the well. A Luminescensor (ATTO) was used for the measurements. Measurements were repeated 3 times for each luciferin concentration.
(§2) The peak intensity of the obtained photo count value was plotted with respect to luciferin concentration S, defining the initial rate as V. The plots were subjected to curve fitting of Michaelis Menten type, thereby giving Km values. The curve fitting was performed by a nonlinear least-squares method, and the search of the parameter was performed by a Newton method.
(§3) 4-3. Measurement of Km Value with Respect to ATP
(§4) Under various ATP concentrations, the luminescent intensity of the obtained luciferase was measured. Based on the results, Km values with respect to ATP was determined.
(§5) Various […] types of ATP solutions were prepared by adding ATP to 0.1 M Tris-HCl (pH 8.0). These solutions contain ATP at final concentration of 5, 10, 20, 40, 80, 160, 320, 480, 640, 800, 1280, 1600, or 1920 μM. These ATP solutions were each injected into 96-hole in a microplate at a volume of 50 μl. […]
(§6) Table 1 also indicates Km values for known firefly luciferases, measured in a similar manner. […]

[2] = system: SP1 luciferase, Luciola sp1 (Malaysian firefly, genus Luciola), wild type, SEQ ID NO: 1; assay: Km of SP1 luciferase (luminescence kinetic analysis); type: biochemical; conditions: for Km: 0.1 M Tris-HCl (pH 8.0), MgSO4, Michaelis Menten curve fitting; for Km values with respect to ATP and D-luciferin, compared with known luciferases: FIG. 2, SP1 luciferase versus known luciferases
Procedure: The measurements were carried out ten times for each sample, and the average of absorbency was used for the calculation.
Various 12 types of ATP solutions were prepared by adding ATP to 0.1 M Tris-HCl (pH 8.0). These solutions contain ATP at final concentration of 5, 10, 20, 40, 80, 160, 320, 480, 640, 800, 1280, 1600, or 1920 μM. These ATP solutions were each injected into 96-hole in a microplate at a volume of 50 μl. […] Measurement was repeated 3 times for each ATP concentration.
The peak intensities of the obtained photon count value were plotted with respect to ATP concentration S, with an initial rate V. The plots were subjected to curve fitting of Michaelis Menten type, thereby giving Km value. The curve fitting was performed by a nonlinear least-squares method, and the search of the parameter was performed by a Newton method.

[3] = system: CBG (luciferase derived from known click beetles); assay: Km of CBG luciferase (luminescence kinetic analysis); type: biochemical, click beetle; conditions: 0.1 M Tris-HCl (pH 8.0), MgSO4, measured in a similar manner
Procedure: as §1, §2, §3, §4, §5, §6

[4] = system: CBR (luciferase derived from known click beetles); assay: Km of CBR luciferase (luminescence kinetic analysis); type: biochemical, click beetle; conditions: 0.1 M Tris-HCl (pH 8.0), MgSO4, measured in a similar manner
Procedure: as §1, §2, §3, §4, §5, §6

[5] = Measurement of luminescent intensity of purified luciferase compared with Rhodamine 6G and P. pyralis luciferase; type: biochemical; conditions: purified enzymes, integration of light 300 nm to 650 nm for 10 seconds
Procedure: Rhodamine 6G was dissolved into 0.1 M citric acid/0.2 M Na2HPO4 (pH 4.0) solution. The Rhodamine 6G solution was centrifuged for 1 minute at 15,000 rpm, and the supernatant was collected. The collected supernatant is diluted with 0.1 M citric acid/0.2 M Na2HPO4 solution 1000 fold, and the absorbance thereof was measured. Measurement was carried out by NanoVue (GE Healthcare). The measurement at 530 nm was repeated 5 times, and the average absorbance 0.048 was obtained. The concentration of the original Rhodamine 6G solution was calculated by using ε value of Rhodamine (1.16×10^5 mol^−1cm^−1), and the value 414 μM was obtained. The solution was diluted with 0.1 M citric acid/0.2 M Na2HPO4 solution (pH 4.0) to prepare 30 μM of a diluted solution.
Solution 1 having the following composition was prepared with use of the diluted solution.
Solution 2 was prepared by dissolving bis (2,4,6-trichlorophenyl)oxlate (TCPO) so that the final concentration thereof is 3 mM.
100 μl of solution 1 was injected for each well of 96-hole microplate. Measurement was started at the same time as addition of 50 μl of solution 2 with use of a pump, and integration value of photon counts for 10 seconds from addition of solution 2 was obtained. […]
A concentration of the obtained sample was measured by a colorimetric method, and the concentrations of P. pyralsis luciferase and SP1 luciferase were confirmed. […]

HeLa cell = assay: Luminescent intensity of SP1 luciferase expressed in a mammal cell; type: cell-based; conditions: expression in HeLa cell, 1 mM D-luciferin, integration for 10 seconds
Procedure: SP1 luciferase was expressed in a HeLa cell, and the luminescent intensity in a cell was measured.
For introduction of SP1 luciferase gene, four types of expression vectors were prepared. Nucleic acids each containing a gene prepared by deleting recognition sequences of BamHI and EcoRI from the original SP1 luciferase gene obtained from Luciola sp1 (SEQ ID NO: 3), a gene further optimized for expression in a mammal cell (SEQ ID NO: 4), and two types of genes to which Kozak sequence was further added (SEQ ID NOS: 29 and 30) were each inserted into the multi-cloning site between BamHI and EcoRI of pcDNA3.1(+) vector (Invitrogen). Further, for comparison, a nucleic acid containing a known P. pyralis luciferase gene optimized for expression in a mammal cell was inserted into pcDNA3.1(+) vector similarly.
Five types of plasmids obtained in such a manner described above were each subjected to gene transfection to a HeLa cell by a lipofection method, and D-MEM culture medium was exchanged after 24 hours. […] The luminescent intensities shown in FIG. 4 are integration values for 10 seconds.

HeLa cells = assay: Luminescence activity of SP1 mutants expressed in HeLa cells, corrected by hRluc internal standard; type: cell-based; conditions: 90 minutes after D-luciferin addition, corrected by hRluc luminescence at 10 minutes
Description: The fragment of the nucleic acid having the base sequence of SEQ ID NO: 35 was inserted into between SgfI site and PmeI site of a pF9A CMV hRluc-neo FlexiR vector (Promega). The fragment of the nucleic acid having the base sequence of SEQ ID NO: 36 was inserted into between SgfI site and PmeI site of another pF9A CMV hRluc-neo FlexiR vector. Two types of the obtained expression vectors were each introduced into HeLa cells, and mutants were expressed.
The luminescence intensity of two types of cells expressing mutants was detected by using a cell expressing the original SP1 luciferase without mutations as a comparison. Here, the luminescence intensity of each Hela cell was corrected using the luminescence based on hRluc gene of pF9A CMV hRluc-neo FlexiR vector (Promega) as an internal standard.

[6] = D-luciferin, read-out: Km for ATP
[7] = read-out: Km for D-luciferin, ATP

With `Nc1ncnc2c1ncn2[C@@H]1O[C@H](COP(=O)(O)OP(=O)(O)OP(=O)(O)O)[C@@H](O)[C@H]1O` [ATP] the Km [1, 6] was 182 µM, the Km [2, 6] was 195 µM and the “Km values with respect to ATP and D-luciferin, compared with known luciferases” value [2] was “higher Km values”. It also gave a Km [3, 6] of 58.4 µM and a Km [4, 6] of 47.1 µM.

In the case of `O=C(O)[C@H]1CSC(c2nc3ccc(O)cc3s2)=N1` [D-luciferin], the Km [1, 7] is reported as 12.7 µM, the “Km values with respect to ATP and D-luciferin, compared with known luciferases” value [2] is reported as “higher Km values” and the Km [2, 7] is reported as 44.6 µM. For the same molecule, the Km [3, 7] was 1.44 µM and the Km [4, 7] was 33.3 µM.

B1: SP1 luciferase: luciferase of SEQ ID NO: 1 derived from Malaysian firefly Luciola sp1 (protein, listed as Luciola sp.)
chain: MNNMDDGEHIVVGPQPFYPVEEGSAGTQLLKYLKQYSKLGAIAFSNAHTKVDISYAEYLDTSVRLAQALINYGIPIDGRIALCSENCEEFYFPVLAGLYIGAGVAPTNEIYTLRELVHSLGISKPTIVFSSKKGLEKVITVQKTVTCIKTIVILDSKVDYQGYDCLETFIKKYLPAGFSVENFIPREVNRKEQVALVMNSSGSTGLPKGVQITHEGAVTRFSHARDPIYGNQVSPGTAILTIVPFHHGFGMFTNLGYLTCGYRIVMLTKFDEELFLKTLADYKCTSVILVPTLFAILSKSVLLEKYDLSNLVEIASGGAPLAKEVGEAVARRFNLPGIRQGYGLTETTSAIIITPEGDDKPGASGKIVPLFRAKVVDLDTQKTLGPNRRGEICVKGPMLMKGYVDDPVATSQIIDKDGWLHTGDIGYFDEDKHFFIVDRLKSLIKYKGYQVPPAELESVLLQHPDIFDAGVAGLPDPLAGELPGAVVVLEKGRHMTEQQVMDYVAGQVSNAKRLRGGVRFVDEVPKGLTGKIDSKAIREILKSPKAKM
In the case of B1, the “luminescent intensity in comparison to that of P. pyralis luciferase” value [5] is reported as 4.9 times.

B2: SP1 luciferase codon optimized: SP1 luciferase expressed from gene optimized for expression in a mammal cell (SEQ ID NO: 4) (protein, listed as Luciola sp.)
chain: MNNMDDGEHIVVGPQPFYPVEEGSAGTQLLKYLKQYSKLGAIAFSNAHTKVDISYAEYLDTSVRLAQALINYGIPIDGRIALCSENCEEFYFPVLAGLYIGAGVAPTNEIYTLRELVHSLGISKPTIVFSSKKGLEKVITVQKTVTCIKTIVILDSKVDYQGYDCLETFIKKYLPAGFSVENFIPREVNRKEQVALVMNSSGSTGLPKGVQITHEGAVTRFSHARDPIYGNQVSPGTAILTIVPFHHGFGMFTNLGYLTCGYRIVMLTKFDEELFLKTLADYKCTSVILVPTLFAILSKSVLLEKYDLSNLVEIASGGAPLAKEVGEAVARRFNLPGIRQGYGLTETTSAIIITPEGDDKPGASGKIVPLFRAKVVDLDTQKTLGPNRRGEICVKGPMLMKGYVDDPVATSQIIDKDGWLHTGDIGYFDEDKHFFIVDRLKSLIKYKGYQVPPAELESVLLQHPDIFDAGVAGLPDPLAGELPGAVVVLEKGRHMTEQQVMDYVAGQVSNAKRLRGGVRFVDEVPKGLTGKIDSKAIREILKSPKAKM
In the case of B2, the “increase of luminescent intensity in comparison to SP1 luciferase without codon optimization” value (HeLa cell) is reported as 16.2 times and the “luminescent intensity in comparison to that of P. pyralis luciferase after codon optimization” value (HeLa cell) is reported as 1.7 times.

B3: SP1 mutant 1: SP1 luciferase with mutations D438G, I532R and E356R; amino acid sequence SEQ ID NO: 37 (protein)
chain: MNNMDDGEHIVVGPQPFYPVEEGSAGTQLLKYLKQYSKLGAIAFSNAHTKVDISYAEYLDTSVRLAQALINYGIPIDGRIALCSENCEEFYFPVLAGLYIGAGVAPTNEIYTLRELVHSLGISKPTIVFSSKKGLEKVITVQKTVTCIKTIVILDSKVDYQGYDCLETFIKKYLPAGFSVENFIPREVNRKEQVALVMNSSGSTGLPKGVQITHEGAVTRFSHARDPIYGNQVSPGTAILTIVPFHHGFGMFTNLGYLTCGYRIVMLTKFDEELFLKTLADYKCTSVILVPTLFAILSKSVLLEKYDLSNLVEIASGGAPLAKEVGEAVARRFNLPGIRQGYGLTETTSAIIITPRGDDKPGASGKIVPLFRAKVVDLDTQKTLGPNRRGEICVKGPMLMKGYVDDPVATSQIIDKDGWLHTGDIGYFDEDKHFFIVGRLKSLIKYKGYQVPPAELESVLLQHPDIFDAGVAGLPDPLAGELPGAVVVLEKGRHMTEQQVMDYVAGQVSNAKRLRGGVRFVDEVPKGLTGKRDSKAIREILKSPKAKM
modifications: Luciola sp. mutant 1
With B3 the “luminescence intensity in comparison to the original SP1” value (HeLa cells) was “increased”.

B4: SP1 mutant 2: SP1 luciferase with mutations E356R and V368A; amino acid sequence SEQ ID NO: 38 (protein)
chain: MNNMDDGEHIVVGPQPFYPVEEGSAGTQLLKYLKQYSKLGAIAFSNAHTKVDISYAEYLDTSVRLAQALINYGIPIDGRIALCSENCEEFYFPVLAGLYIGAGVAPTNEIYTLRELVHSLGISKPTIVFSSKKGLEKVITVQKTVTCIKTIVILDSKVDYQGYDCLETFIKKYLPAGFSVENFIPREVNRKEQVALVMNSSGSTGLPKGVQITHEGAVTRFSHARDPIYGNQVSPGTAILTIVPFHHGFGMFTNLGYLTCGYRIVMLTKFDEELFLKTLADYKCTSVILVPTLFAILSKSVLLEKYDLSNLVEIASGGAPLAKEVGEAVARRFNLPGIRQGYGLTETTSAIIITPRGDDKPGASGKIAPLFRAKVVDLDTQKTLGPNRRGEICVKGPMLMKGYVDDPVATSQIIDKDGWLHTGDIGYFDEDKHFFIVDRLKSLIKYKGYQVPPAELESVLLQHPDIFDAGVAGLPDPLAGELPGAVVVLEKGRHMTEQQVMDYVAGQVSNAKRLRGGVRFVDEVPKGLTGKIDSKAIREILKSPKAKM
modifications: Luciola sp. mutant 2
With B4 the “luminescence intensity in comparison to the original SP1” value (HeLa cells) was “increased”.

From patent US8722376B2, “Firefly luciferase” (Olympus Corporation, priority 2011, dated 2014)
